Source: US20240218022A1, “ANTI-VISTA MACROCYCLIC PEPTIDES AND COMPOSITIONS” (BRISTOL-MYERS SQUIBB COMPANY, priority 2022, published 2024)
Read-outs that look alike come from different tables or passages of the source. Starred links: 1 amine or outer side, 2 acyl side, 3 side chain; linkers in the order of their positions; H or OH if unused. Positions of bridges follow the written chain, without caps; N, C: chain ends. Non-standard residues stand in square brackets, D forms with d. Residues, ends and D or L forms follow the SMILES beside them. *: point of attachment. Phe(4-COOH) = N[C@@H](Cc1ccc(C(=O)O)cc1)C(=O)O; Phe(3-Me) = Cc1cccc(C[C@H](N)C(=O)O)c1; γGlu = O=C(O)[C@H](CCC(=O)[*:2])N[*:1]; 2Nal = N[C@@H](Cc1ccc2ccccc2c1)C(=O)O; βAsp = O=C(O)[C@H](CC(=O)[*:2])N[*:1]; Ahp(2) = CCCCC[C@H](N)C(=O)O; NMeNle = CCCC[C@H](NC)C(=O)O; Tle = CC(C)(C)[C@H](N)C(=O)O; NMeS = CN[C@@H](CO)C(=O)O; Carboxymethyl = O=C(O)C*; NHexGly = CCCCCCNCC(=O)O; Nle = CCCC[C@H](N)C(=O)O; Aun = NCCCCCCCCCCC(=O)O; Aze = O=C(O)[C@@H]1CCN1; AEEA = NCCOCCOCC(=O)O; NBuGly = CCCCNCC(=O)O

Molecular target: T1, mouse VISTA (mVISTA) (Mus musculus, UniProt Q9D659)
T1 construct: expressed in transfected cells; host or cells: Human embryonic kidney 293T cells
T1 sequence (Q9D659 33-308): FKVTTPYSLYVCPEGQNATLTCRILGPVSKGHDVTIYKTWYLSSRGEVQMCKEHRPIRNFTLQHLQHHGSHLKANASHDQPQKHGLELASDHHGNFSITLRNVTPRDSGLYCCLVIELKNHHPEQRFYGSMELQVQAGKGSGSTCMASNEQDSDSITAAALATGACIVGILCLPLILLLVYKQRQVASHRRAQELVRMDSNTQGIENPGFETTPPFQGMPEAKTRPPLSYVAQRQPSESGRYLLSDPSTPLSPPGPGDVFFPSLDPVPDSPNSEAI
Assay: Cell-Based Binding High-Content Assay For mVISTA (HC CBA mVISTA)
Procedure, shortened: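 Read-out: Alexa 647–streptavidin signal imaged on fixed, Hoechst-stained mVISTA-293T cells, with IC50 taken from a four-parameter logistic curve. Compounds competed with 2 nM biotinylated peptide for 30 min at room temperature, tested under both no-wash and wash (1 h compound, media exchange, 1 h) formats.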

[1] = 293T cells expressing mouse VISTA, competition with biotinylated peptide (2 nM), read-out: HC CBA mVISTA IC50

SMILES | IC50 (read-out: HC CBA mVISTA IC50) [µM] | further results
CCCCCCN1CC(=O)N[C@@H](Cc2ccc(O)cc2)C(=O)N[C@@H](CC(C)C)C(=O)NCC(=O)N[C@@H](CCCNC(=N)N)C(=O)N[C@@H](CC(C)C)C(=O)N[C@@H](CCCCC)C(=O)N2CCC[C@H]2C(=O)N[C@@H](C(C)C)C(=O)N[C@@H](CC(=O)O)C(=O)N[C@H](C(=O)NCC(=O)O)CSCC(=O)N[C@@H](Cc2ccccc2)C(=O)N[C@@H](Cc2ccc(O)cc2)C(=O)N[C@@H](CC(=O)O)C1=O [Example 1016] ({CH2CO}-FYD[NHexGly]YLGRL[Ahp(2)]PVDCG-OH; thioether N-14) |  | IC50 [1]: 0.021 µM
CCCCCCN1CC(=O)N[C@@H](Cc2ccc(O)cc2)C(=O)N[C@@H](CCCCC)C(=O)N[C@@H](CC(=O)O)C(=O)N[C@@H](CCCNC(=N)N)C(=O)N(C)[C@@H](CCCC)C(=O)N[C@@H](CCCCC)C(=O)N2CCC[C@H]2C(=O)N[C@@H](C(C)C)C(=O)N[C@@H](CC(=O)O)C(=O)N[C@H](C(=O)N[C@@H](CCC(=O)O)C(N)=O)CSCC(=O)N[C@@H](Cc2ccccc2)C(=O)N[C@@H](Cc2ccc(O)cc2)C(=O)N[C@@H](CC(=O)O)C1=O [Example 1077] ({CH2CO}-FYD[NHexGly]Y[Ahp(2)]DR[NMeNle][Ahp(2)]PVDCE-NH2; thioether N-14) |  | IC50 (293T cells expressing mouse VISTA, competition with biotinylated peptide (2 nM), read-out: CBA mVISTA IC50): 0.0147 µM
CCCCCCN1CC(=O)N[C@@H](Cc2ccc(O)cc2)C(=O)N[C@@H](CCCC)C(=O)N[C@@H](CC(=O)O)C(=O)N[C@@H](CCCNC(=N)N)C(=O)N[C@@H](CC(C)C)C(=O)N[C@@H](CCCCC)C(=O)N2CCC[C@H]2C(=O)N[C@@H](C(C)C)C(=O)N2CCC[C@H]2C(=O)N[C@H](C(=O)NCC(=O)O)CSCC(=O)N[C@@H](Cc2ccccc2)C(=O)N[C@@H](Cc2ccc(O)cc2)C(=O)N[C@@H](CC(=O)O)C1=O [compound 1118] ({CH2CO}-FYD[NHexGly]Y[Nle]DRL[Ahp(2)]PVPCG-OH; thioether N-14) | 0.0299 | 
CCCCCCN1CC(=O)N[C@@H](Cc2ccc(O)cc2)C(=O)N[C@@H](CC(C)C)C(=O)N[C@@H](CC(N)=O)C(=O)N[C@@H](CCCNC(=N)N)C(=O)N(C)[C@@H](CO)C(=O)N[C@@H](CCCCC)C(=O)N2CCC[C@H]2C(=O)N[C@@H](C(C)(C)C)C(=O)N[C@@H](CO)C(=O)N[C@H](C(=O)NCCOCCOCC(=O)N[C@@H](CCC(=O)NCCOCCOCC(=O)NCCCCCCCCCCC(=O)O)C(=O)O)CSCC(=O)N[C@@H](Cc2ccccc2)C(=O)N[C@@H](Cc2ccc(O)cc2)C(=O)N[C@@H](CC(=O)O)C1=O [compound 2262] ({CH2CO}-FYD[NHexGly]YLNR[NMeS][Ahp(2)]P[Tle]SC[AEEA][γGlu][AEEA][Aun]-OH; thioether N-14) | 0.0398 | 
CCCCCCN1CC(=O)N[C@@H](Cc2ccc(O)cc2)C(=O)N[C@@H](CCCC)C(=O)NCC(=O)N[C@@H](CCCNC(=N)N)C(=O)N[C@@H](CC(C)C)C(=O)N[C@@H](CCCCC)C(=O)N2CCC[C@H]2C(=O)N[C@@H](C(C)C)C(=O)N[C@@H](C)C(=O)N[C@H](C(=O)NCC(=O)O)CSCC(=O)N[C@@H](Cc2ccccc2)C(=O)N[C@@H](Cc2ccc(O)cc2)C(=O)N[C@@H](CC(=O)O)C1=O [Example 1007] ({CH2CO}-FYD[NHexGly]Y[Nle]GRL[Ahp(2)]PVACG-OH; thioether N-14) |  | IC50 [1]: 0.0151 µM
CCCCCCN1CC(=O)N[C@@H](Cc2ccc(O)cc2)C(=O)N[C@@H](CCCC)C(=O)N[C@@H](CC(=O)O)C(=O)N[C@@H](CCCNC(=N)N)C(=O)N(C)[C@@H](CCCC)C(=O)N[C@@H](CCCCC)C(=O)N2CCC[C@H]2C(=O)N[C@@H](C(C)(C)C)C(=O)N[C@@H](CC(=O)O)C(=O)N[C@H](C(=O)NCC(N)=O)CSCC(=O)N[C@@H](Cc2ccccc2)C(=O)N[C@@H](Cc2c[nH]c3ccccc23)C(=O)N[C@@H](CC(=O)O)C1=O [Example 1392] ({CH2CO}-FWD[NHexGly]Y[Nle]DR[NMeNle][Ahp(2)]P[Tle]DCG-NH2; thioether N-14) | 0.0383 | 
CCCCCCN1CC(=O)N[C@@H](Cc2ccc(O)cc2)C(=O)N[C@@H](CCCC)C(=O)N[C@@H](CC(N)=O)C(=O)N[C@@H](CCCNC(=N)N)C(=O)N(C)[C@@H](CCCC)C(=O)N[C@@H](CCCCC)C(=O)N2CCC[C@H]2C(=O)N[C@@H](C(C)(C)C)C(=O)N[C@@H](CO)C(=O)N[C@H](C(=O)NCCOCCOCC(=O)N[C@@H](CCC(=O)NCCOCCOCC(=O)NCCCCCCCCCCC(=O)O)C(=O)O)CSCC(=O)N[C@@H](Cc2ccc(C(=O)O)cc2)C(=O)N[C@@H](Cc2ccc(O)cc2)C(=O)N[C@@H](CC(=O)O)C1=O [compound 2251] ({CH2CO}-[Phe(4-COOH)]YD[NHexGly]Y[Nle]NR[NMeNle][Ahp(2)]P[Tle]SC[AEEA][γGlu][AEEA][Aun]-OH; thioether N-14) | 0.0286 | 
CCCCCCN1CC(=O)N[C@@H](Cc2ccc(O)cc2)C(=O)N[C@@H](CC(C)C)C(=O)N[C@@H](CC(N)=O)C(=O)N[C@@H](CCCNC(=N)N)C(=O)N[C@@H](CC(C)C)C(=O)N[C@@H](CCCCC)C(=O)N2CCC[C@H]2C(=O)N[C@@H](C(C)C)C(=O)N[C@@H](C(C)C)C(=O)N[C@H](C(=O)NCC(=O)O)CSCC(=O)N[C@@H](Cc2cccc(C)c2)C(=O)N[C@@H](Cc2ccc(O)cc2)C(=O)N[C@@H](CC(=O)O)C1=O [compound 1432] ({CH2CO}-[Phe(3-Me)]YD[NHexGly]YLNRL[Ahp(2)]PVVCG-OH; thioether N-14) |  | IC50 (the 19th table, scaffold drawing 22, read-out: HC CBA mVISTA IC50): 0.003 µM
CCCCCCN1CC(=O)N[C@@H](Cc2ccc(O)cc2)C(=O)N[C@@H](CCCC)C(=O)N[C@@H](CC(N)=O)C(=O)N[C@@H](CCCNC(=N)N)C(=O)N(C)[C@@H](CCCC)C(=O)N[C@@H](CCCCC)C(=O)N2CC[C@H]2C(=O)N[C@@H](Cc2ccccc2)C(=O)N[C@@H](CO)C(=O)N[C@H](C(=O)N[C@@H](CC(=O)NCCOCCOCC(=O)NCCCCCCCCCCC(=O)O)C(=O)O)CSCC(=O)N[C@@H](Cc2ccccc2)C(=O)N[C@@H](Cc2c[nH]c3ccccc23)C(=O)N[C@@H](CC(=O)O)C1=O [Example 2188] ({CH2CO}-FWD[NHexGly]Y[Nle]NR[NMeNle][Ahp(2)][Aze]FSC[βAsp][AEEA][Aun]-OH; thioether N-14) | 0.0473 | 
CCCCCCN1CC(=O)N[C@@H](Cc2ccc(O)cc2)C(=O)N[C@@H](Cc2ccc(OCC(=O)O)cc2)C(=O)N[C@@H](CC(N)=O)C(=O)N[C@@H](CCCNC(=N)N)C(=O)N(C)[C@@H](CCCC)C(=O)N[C@@H](CCCCC)C(=O)N2CCC[C@H]2C(=O)N[C@@H](C(C)(C)C)C(=O)N[C@@H](CC(=O)O)C(=O)N[C@H](C(N)=O)CSCC(=O)N[C@@H](Cc2ccccc2)C(=O)N[C@@H](Cc2c[nH]c3ccccc23)C(=O)N[C@@H](CC(=O)O)C1=O [compound 1168] ({CH2CO}-FWD[NHexGly]YY(Carboxymethyl)NR[NMeNle][Ahp(2)]P[Tle]DC-NH2; thioether N-14) | 0.0262 | 
CCCCC[C@@H]1NC(=O)[C@H](CC(C)C)NC(=O)[C@H](CCCNC(=N)N)NC(=O)CNC(=O)[C@H](C(C)C)NC(=O)[C@H](Cc2ccc(O)cc2)NC(=O)CN(CCCC)C(=O)[C@H](CC(=O)O)NC(=O)[C@H](Cc2ccc(O)cc2)NC(=O)[C@H](Cc2ccc3ccccc3c2)NC(=O)CSC[C@@H](C(=O)NCC(=O)O)NC(=O)[C@H](CC(=O)O)NC(=O)[C@H](C(C)C)NC(=O)[C@@H]2CCCN2C1=O [Ex 1269] ({CH2CO}-[2Nal]YD[NBuGly]YVGRL[Ahp(2)]PVDCG-OH; thioether N-14) |  | IC50 (cell-based binding high-content assay, mVISTA, the 16th table, read-out: HC CBA mVISTA IC50): 0.0157 µM
